From the NIST ThermoML archive (doi:10.1016/j.jct.2015.06.005)

How the values were obtained:
[1] = xn = mol fraction of the nth substance listed; settings: 100 kPa, Liquid, x1 = 1; for speed of sound: Frequency=3 MHz, Sing-around technique in a fixed-path interferometer; for mass density: Vibrating tube method
[2] = refractive index (Na D-line) (dimensionless); xn = mol fraction of the nth substance listed; settings: 100 kPa, Liquid, Standard Abbe refractometry, x1 = 1
[3] = refractive index (Na D-line) (dimensionless); settings: 100 kPa, Liquid, Standard Abbe refractometry
[4] = 100 kPa, Liquid; for speed of sound: Frequency=3 MHz, Sing-around technique in a fixed-path interferometer; for mass density: Vibrating tube method

CCCCn1cc[n+](C)c1.F[B-](F)(F)F [1-butyl-3-methylimidazolium tetrafluoroborate] + CCCCCCCCN1CCCC1=O
Settings	mass density, [1] [kg/m3]	refractive index, [2]	speed of sound, [1] [m/s]
298.15 K	1198.78	1.42058	1565.1
303.15 K	1195.18	1.41913	1553.2
308.15 K	1191.6	1.41764	1541.3
313.15 K	1188.04	1.41621	1529.7
318.15 K	1184.5	1.41472	1518.2
323.15 K	1180.98	1.4133	1506.8

CCCCCCCCN1CCCC1=O [N-octyl-2-pyrrolidone]
Settings	mass density, [4] [kg/m3]	refractive index, [3]	speed of sound, [4] [m/s]
298.15 K	918.45	1.46346	1450.2
303.15 K	914.8	1.46152	1432.6
308.15 K	911.14	1.45955	1415.3
313.15 K	907.49	1.45761	1398
318.15 K	903.83	1.45564	1380.9
323.15 K	900.17	1.45367	1364
